Organism: Rattus norvegicus
Assay: DrugMatrix - Regimen: Daily Repeat
Format: toxicity, organism-based, Sprague-Dawley
Parameters: regimen Daily Repeat, gender Male, age 6-8 weeks
Details: in vivo, po, route oral GAVAGE, […]; for ABSOLUTE BASOPHIL / ABSOLUTE EOSINOPHIL / ABSOLUTE LYMPHOCYTE / ABSOLUTE MONOCYTE / ABSOLUTE SEGMENTED NEUTROPHIL / BASOPHIL / EOSINOPHIL / ERYTHROCYTE COUNT / HEMATOCRIT / HEMOGLOBIN / LEUKOCYTE COUNT / LYMPHOCYTE / MEAN CORPUSCULAR HEMOGLOBIN / MEAN CORPUSCULAR HEMOGLOBIN CONCENTRATION / MEAN CORPUSCULAR VOLUME / MONOCYTE / NEUTROPHIL / NUCLEATED RED BLOOD CELLS / PLATELET COUNT: tissue Blood; for ALANINE AMINOTRANSFERASE / ALBUMIN / ALKALINE PHOSPHATASE / ASPARTATE AMINOTRANSFERASE / BLOOD UREA NITROGEN / CARBON DIOXIDE / CHLORIDE / CHOLESTEROL / CREATINE PHOSPHOKINASE / CREATININE / GLUCOSE / LACTATE DEHYDROGENASE / LIPASE / PHOSPHORUS / POTASSIUM / SODIUM / TOTAL BILIRUBIN / TOTAL PROTEIN / URIC ACID: tissue Plasma
[1] = 29 mg/kg, 120 h, dose level Low, time 5 day
[2] = 450 mg/kg, 72 h, dose level High, time 3 day
[3] = 450 mg/kg, 120 h, dose level High, time 5 day

C[C@@H]1CN(c2c(F)c(N)c3c(=O)c(C(=O)O)cn(C4CC4)c3c2F)C[C@H](C)N1 [SPARFLOXACIN] was tested, and the “ABSOLUTE BASOPHIL” value [1] was 0 CELLS/uL, the “ABSOLUTE EOSINOPHIL” value [1] was 69.33 CELLS/uL and the “ABSOLUTE LYMPHOCYTE” value [1] was 8350.33 CELLS/uL. The “ABSOLUTE MONOCYTE” value [1] was 91.33 CELLS/uL, the “ABSOLUTE SEGMENTED NEUTROPHIL” value [1] was 455.67 CELLS/uL and the BASOPHIL [1] was 0%. The EOSINOPHIL [1] was 0.67%, the “ERYTHROCYTE COUNT” value [1] was 5.79 x10E6/uL and the HEMATOCRIT [1] was 35.13%. For the same compound, the HEMOGLOBIN [1] was 13.97 G/DL, the “LEUKOCYTE COUNT” value [1] was 8.97 x10E3/uL and the LYMPHOCYTE [1] was 93%. The “MEAN CORPUSCULAR HEMOGLOBIN” value [1] was 24.13 pg, the “MEAN CORPUSCULAR HEMOGLOBIN CONCENTRATION” value [1] was 39.73 G/DL and the “MEAN CORPUSCULAR VOLUME” value [1] was 60.73 fL. The MONOCYTE [1] was 1%, the NEUTROPHIL [1] was 5.33% and the “NUCLEATED RED BLOOD CELLS” value [1] was 0 /100WBC. The “PLATELET COUNT” value [1] was 1048 x10E3/uL, the “ALANINE AMINOTRANSFERASE” value [1] was 62 u/L and the ALBUMIN [1] was 4.03 G/DL. The “ALKALINE PHOSPHATASE” value [1] was 251.67 u/L, the “ASPARTATE AMINOTRANSFERASE” value [1] was 82 u/L and the “BLOOD UREA NITROGEN” value [1] was 13.33 mg/dL. The “CARBON DIOXIDE” value [1] was 33 mmol/L, the CHLORIDE [1] was 98.33 MEQ/L and the CHOLESTEROL [1] was 65.67 mg/dL. For the same compound, the “CREATINE PHOSPHOKINASE” value [1] was 381.67 u/L, the CREATININE [1] was 0.18 mg/dL and the GLUCOSE [1] was 147.33 mg/dL. For the same compound, the “LACTATE DEHYDROGENASE” value [1] was 161.33 u/L, the LIPASE [1] was 12 u/L and the PHOSPHORUS [1] was 10.9 mg/dL. The POTASSIUM [1] was 6.43 MEQ/L, the SODIUM [1] was 144.2 MEQ/L and the “TOTAL BILIRUBIN” value [1] was 0.13 mg/dL. The “TOTAL PROTEIN” value [1] was 6 G/DL, the “URIC ACID” value [1] was 0.77 mg/dL and the “ABSOLUTE BASOPHIL” value [2] was 0 CELLS/uL. For the same compound, the “ABSOLUTE EOSINOPHIL” value [2] was 0 CELLS/uL, the “ABSOLUTE LYMPHOCYTE” value [2] was 14211.67 CELLS/uL and the “ABSOLUTE MONOCYTE” value [2] was 0 CELLS/uL. For the same compound, the “ABSOLUTE SEGMENTED NEUTROPHIL” value [2] was 1355 CELLS/uL, the BASOPHIL [2] was 0% and the EOSINOPHIL [2] was 0%. For the same compound, the “ERYTHROCYTE COUNT” value [2] was 5.74 x10E6/uL, the HEMATOCRIT [2] was 34.87% and the HEMOGLOBIN [2] was 13.93 G/DL. For the same compound, the “LEUKOCYTE COUNT” value [2] was 15.57 x10E3/uL, the LYMPHOCYTE [2] was 91.33% and the “MEAN CORPUSCULAR HEMOGLOBIN” value [2] was 24.3 pg. The “MEAN CORPUSCULAR HEMOGLOBIN CONCENTRATION” value [2] was 40 G/DL, the “MEAN CORPUSCULAR VOLUME” value [2] was 60.77 fL and the MONOCYTE [2] was 0%. For the same compound, the NEUTROPHIL [2] was 8.67%, the “NUCLEATED RED BLOOD CELLS” value [2] was 0 /100WBC and the “PLATELET COUNT” value [2] was 1148.33 x10E3/uL. For the same compound, the “ALANINE AMINOTRANSFERASE” value [2] was 55.33 u/L, the ALBUMIN [2] was 3.93 G/DL and the “ALKALINE PHOSPHATASE” value [2] was 277.33 u/L. For the same compound, the “ASPARTATE AMINOTRANSFERASE” value [2] was 69.33 u/L, the “BLOOD UREA NITROGEN” value [2] was 12 mg/dL and the “CARBON DIOXIDE” value [2] was 31.67 mmol/L. The CHLORIDE [2] was 101 MEQ/L, the CHOLESTEROL [2] was 72.33 mg/dL and the “CREATINE PHOSPHOKINASE” value [2] was 173 u/L. The CREATININE [2] was 0.21 mg/dL, the GLUCOSE [2] was 159.67 mg/dL and the “LACTATE DEHYDROGENASE” value [2] was 146 u/L. The LIPASE [2] was 10.67 u/L, the PHOSPHORUS [2] was 10.6 mg/dL and the POTASSIUM [2] was 6.2 MEQ/L. For the same compound, the SODIUM [2] was 143.4 MEQ/L, the “TOTAL BILIRUBIN” value [2] was 0.17 mg/dL and the “TOTAL PROTEIN” value [2] was 5.73 G/DL. For the same compound, the “URIC ACID” value [2] was 1.3 mg/dL, the “ABSOLUTE BASOPHIL” value [3] was 0 CELLS/uL and the “ABSOLUTE EOSINOPHIL” value [3] was 0 CELLS/uL. For the same compound, the “ABSOLUTE LYMPHOCYTE” value [3] was 8740 CELLS/uL, the “ABSOLUTE MONOCYTE” value [3] was 96.67 CELLS/uL and the “ABSOLUTE SEGMENTED NEUTROPHIL” value [3] was 396.67 CELLS/uL. For the same compound, the BASOPHIL [3] was 0%, the EOSINOPHIL [3] was 0% and the “ERYTHROCYTE COUNT” value [3] was 5.14 x10E6/uL. The HEMATOCRIT [3] was 33.83%, the HEMOGLOBIN [3] was 13.17 G/DL and the “LEUKOCYTE COUNT” value [3] was 9.23 x10E3/uL. The LYMPHOCYTE [3] was 94.67%, the “MEAN CORPUSCULAR HEMOGLOBIN” value [3] was 25.83 pg and the “MEAN CORPUSCULAR HEMOGLOBIN CONCENTRATION” value [3] was 38.93 G/DL. For the same compound, the “MEAN CORPUSCULAR VOLUME” value [3] was 66.27 fL, the MONOCYTE [3] was 1% and the NEUTROPHIL [3] was 4.33%. The “NUCLEATED RED BLOOD CELLS” value [3] was 0 /100WBC, the “PLATELET COUNT” value [3] was 1047.33 x10E3/uL and the “ALANINE AMINOTRANSFERASE” value [3] was 67.33 u/L. The ALBUMIN [3] was 4.03 G/DL, the “ALKALINE PHOSPHATASE” value [3] was 374 u/L and the “ASPARTATE AMINOTRANSFERASE” value [3] was 88.67 u/L. The “BLOOD UREA NITROGEN” value [3] was 11 mg/dL, the “CARBON DIOXIDE” value [3] was 30 mmol/L and the CHLORIDE [3] was 97.67 MEQ/L. The CHOLESTEROL [3] was 86 mg/dL, the “CREATINE PHOSPHOKINASE” value [3] was 412.67 u/L and the CREATININE [3] was 0.19 mg/dL. The GLUCOSE [3] was 177.67 mg/dL, the “LACTATE DEHYDROGENASE” value [3] was 159.67 u/L and the LIPASE [3] was 10.33 u/L. The PHOSPHORUS [3] was 12.17 mg/dL, the POTASSIUM [3] was 5.6 MEQ/L and the SODIUM [3] was 141 MEQ/L. The “TOTAL BILIRUBIN” value [3] was 0.1 mg/dL, the “TOTAL PROTEIN” value [3] was 5.93 G/DL and the “URIC ACID” value [3] was 1 mg/dL.
